Legend:
[1] = tested on: subjects with thalassemia; test: Prospective clinical study of the Assignee in 187 subjects with thalassemia, heart failure; type: in vivo, human; settings: treated for up to 5 years
Description: The Assignee completed other studies wherein the largest prospective clinical study ever conducted for an iron chelator was made. One hundred eighty-seven subjects with thalassemia were enrolled in this trial conducted by Drs. A. Cohen, R. Galanello, A. Piga, and V. De […] in 3 centres in Italy and 1 center in the USA.

[2] = tested on: subjects with thalassemia major; settings: one patient participating in the study (ref. 31); cited from earlier work
[3] = cited from earlier work
[4] = Serum / blood concentrations at standard doses; type: in vivo, human; settings: current / standard formulation
Procedure: Although a serum concentration of 100 μM for deferiprone can occur with the administration of a single 25 mg/kg dose^22, the serum concentration of desferrioxamine in patients receiving 40 mg/kg/day is usually less than 10 μM.^23. Since the desferrioxamine concentrations used in the myocyte study were more than 10fold the expected serum concentrations, the in vivo cardioprotective effect of this chelator would be expected to be less than that of deferiprone, but not four times less protective placing the patient at a 4-fold greater likelihood of developing a worsening of their cardiac status with desferrioxamine.
Another factor may be related to the different pharmacokinetic characteristics of deferiprone and desferrioxamine when these drugs are given at standard doses, as in the present study. For example, deferiprone at 25 mg/kg, produces peak concentrations of approximately 100 μM with serum concentrations declining to about 10 μM in 6 hours, and this pattern is repeated three times daily, seven days a week. On the other hand, desferrioxamine at 40 mg/kg achieves concentrations of only 5–10 μM and only for the duration of the infusion (8–12 hours/day, 5–7 days per week). The long periods of time without the presence of an iron chelator may have a profound effect on the generation of iron-induced activity within myocytes and through non-transferrin bound iron. […]

[5] = tested on: mouse model; settings: mouse model of Gale et al; cited from earlier work
[6] = tested on: iron overload in patients with thalassemia major; test: Iron overload assessment in the retrospective study (serum ferritin, hepatic iron by SQUID, urinary iron excretion); type: in vivo, human; settings: for Mean ± SD overall urinary iron excretion: during the study period
Procedure: All patients were subjected to the same transfusion regimen aimed at maintaining the pretransfusion hemoglobin levels at 9.5–10.0 g/dL and the mean hemoglobin at 12.0 g/dL. At each episode of red blood cell transfusion, each patient was interviewed and underwent clinical evaluation by a staff physician. The iron overload was determined by monthly assessment of the transfusional-iron input and by quarterly assessment of serum ferritin.
To evaluate the differences related to chelation therapy between the two groups of subjects, after the start of the study, 2 sample t-tests or Chi-square tests were performed to compare their transfusional iron input, serum ferritin, percentage of subjects with more than 50% of their serum ferritin data greater than 2500 μg/L during the study, compliance with chelation therapy, liver iron concentration and urinary iron excretion.

[7] = tested on: cardiac iron; settings: cited from earlier work; for Change in T2 relaxation time in a randomized trial: mean treatment period of 22 months
[8] = tested on: patients; settings: large safety study; cited from earlier work
[9] = tested on: iron-loaded rat neonatal myocytes; settings: cited from earlier work; for Cardio-protective effects against iron-induced damage in neonatal rat myocytes: 100 μM; for Protecting the myocytes against iron-induced damage: at the concentrations used; for Removing iron from iron-loaded rat neonatal myocytes: in vitro
[10] = tested on: subjects with thalassemia major; test: Retrospective study of cardiac disease (NYHA class, echocardiogram) and survival under chelation therapy; type: in vivo, human; settings: for Percentage of patients with improvement of cardiac disease diagnosed at first assessment: NYHA classification; for Percentage of patients with worsening of the cardiac disease: overall, patients with at least 2 cardiac assessments; for Newly diagnosed cardiac disease: patients cardiac disease-free at first assessment with a second cardiac assessment; for Deaths during the study period: patients treated for 4 or more years; for Normalization of the Ejection Fraction (EF) during chelation therapy: patients with abnormal EF at first assessment (2 deferiprone, 1 desferrioxamine); for Improvement of the Systolic Function (SF): patients with abnormal SF at first echocardiographic assessment; for Percentage of patients with improvement of cardiac disease diagnosed at first assessment / Worsening of the cardiac disease in patients with previously diagnosed cardiac disease: patients with cardiac disease at first assessment
Procedure: The study was a single centre, retrospective analysis of medical records of the occurrence of cardiac disease and of the survival of all subjects with thalassemia major treated with deferiprone or with desferrioxamine at the Centro Microcitemie of the University of Turin since Jan. 1, 1995. The medical records were evaluated of all patients ≧5 year-old at the time of the start of the review period and who had the diagnosis of thalassemia major confirmed by laboratory tests (electrophoresis and/or DNA analysis) and clinical criteria (participant's hemoglobin and transfusion dependency).
In addition to the clinical evaluation and laboratory testing, patients underwent periodic cardiac examination and assessment by a cardiologist, which in addition to the physical examination included echocardiogram and 24-hour electrocardiographic Holter monitoring if indicated. Cardiac disease was classified, according to the criteria defined by the New York Heart Association ^17, by a cardiologist experienced in heart problems in subjects with hemoglobinopathies and who was unaware of the chelation therapy of the patients. Worsening of the Systolic Function (SF) or the Ejection Fraction (EF) was defined as an abnormal result at the last assessment in patients with a normal result at the first assessment for the study. Improvement was defined as a normal result at the last assessment for patients with an abnormal result at the first assessment. The first cardiac assessment was considered as the baseline value for each patient. For patients with more than one echocardiograph assessment within a year of the study, the change was based on the mean of the results of that year.
Starting in 1995, a substantial proportion of subjects followed up at the center were treated with deferiprone, in clinical trials or for compassionate therapy. For these patients, deferiprone was given in a dose of 25 mg/kg of body weight, three times per day. The remaining patients had maintained therapy with desferrioxamine (20 to 60 mg/kg/day), given as a subcutaneous infusion for 8 to 12 hour, 4 to 7 days a week except for one patient. Although 2 patients in the desferrioxamine group had their chelation intensified with intravenous chelation during the period of this review, they were not excluded from the analysis.
The Kaplan-Meier analysis of heart disease free survival for patients who were disease-free (NYHA class not applicable=0) at the beginning of the review period was performed by using the procedure LIFETEST from SAS (SAS Institute, Cary, N.C.). The primary comparison of the two groups was based on the log rank test. […] In addition to the Kaplan-Meier analysis, the incidence of patients with a worsening of their NYHA class from the first to the last cardiac assessment was determined for, each treatment group. Chi-square test was performed to compare the incidence between the two groups.

Structure (SMILES)	Reduction of iron concentrations from the heart [5]	Mean ± SD hepatic iron concentration - SQUID during the last year of the review period [6]	Percentage (%) of patients with more than 50% of their serum ferritin results > 2,500 μg/L during the review period [6]	Mean ± SD overall urinary iron excretion [6]	Mean serum ferritin ± SD at year 4 of the review period [6]	Change in T2 relaxation time in a randomized trial [7]	Cardio-protective effects against iron-induced damage in neonatal rat myocytes [9]	Protecting the myocytes against iron-induced damage [9]	Removing iron from iron-loaded rat neonatal myocytes [9]	Percentage of patients with improvement of cardiac disease diagnosed at first assessment [10]	Worsening of the SF at the last assessment ([10]; number of patients)	Percentage of patients with worsening of the cardiac disease [10]	Newly diagnosed cardiac disease [10]	Deaths during the study period [10]	Normalization of the Ejection Fraction (EF) during chelation therapy [10]	Improvement of the Systolic Function (SF) [10]	Worsening of the cardiac disease in patients with previously diagnosed cardiac disease [10]	other results
Cc1c(O)c(=O)ccn1C [Deferiprone, 1,2-dimethyl-3-hydroxypyrid-4one]	none of the compounds studied, being desferrioxamine and deferiprone among others, reduced iron concentrations from the heart	2.5 ± 1.2 mg FE/g liver wet weight	33%	18.1 ± 13.2 mg Fe/day	2402 ± 1331 µg/L	significant improvement	equal cardio-protective effects	equally effective	effective	40 (2/5) %	2 patients	4 (2/45) %	5%	No patient	All three patients presented a normalization of the EF	2 of the 4	none of the 5	Occurrence of heart failure [1]: no heart failure occurred; Reversal of iron-induced congestive heart failure [2]: successful reversal; Serum concentrations declining to ([3]; 25 mg/kg, in 6 hours): about 10 μM; Peak concentrations ([3]; 25 mg/kg): approximately 100 μM; Serum concentration ([3]; single 25 mg/kg dose): 100 µM; Time after which blood levels fall to very low levels [4]: about 4 hours; T2 relaxation time, after treatment ([7]; 23 patients treated for over one year, normal 32 msec): 30.5 ± 6.7 ms; T2 relaxation time, before ([7]; 23 patients, start value, normal 32 msec): 26.6 ± 8.4 ms; Development of agranulocytosis [8]: about 1%; Percentage of patients with improvement of cardiac disease diagnosed at first assessment ([10]; listed as deferiprone): 40%; Percentage of patients with worsening of the cardiac disease ([10]; listed as deferiprone): 4%
CC(=O)N(O)CCCCCNC(=O)CCC(=O)N(O)CCCCCNC(=O)CCC(=O)N(O)CCCCCN [Desferrioxamine]	none of the compounds studied, being desferrioxamine and deferiprone among others, reduced iron concentrations from the heart	1.8 ± 1.0 mg FE/g liver wet weight	21%	15.5 ± 12.9 mg Fe/day	2050 ± 1319 µg/L	no change	equal cardio-protective effects	equally effective	effective	27 (3/11) %	6 patients	17 (10/59) %	19%	No patient	All three patients presented a normalization of the EF	5 of the 8	one of the 11	Iron removed, comparison of the two chelators ([9]; equimolar concentrations): removed more iron than deferiprone; Percentage of patients with improvement of cardiac disease diagnosed at first assessment ([10]; listed as desferrioxamine): 27%; Likelihood to develop a worsening of cardiac status versus deferiprone-treated patients ([10]; desferrioxamine versus deferiprone, same period): 4 fold; Worsening of the EF ([10]; number of patients): 3 patients; Percentage of patients with worsening of the cardiac disease ([10]; listed as desferrioxamine): 17%
